According to patent US20230338316A1, “ABBAPOLINS AS INHIBITORS AND DEGRADERS OF POLO-LIKE KINASES” (UNIVERSITY OF SOUTH CAROLINA, priority 2022, published 2023):

Tests used:
PLK1 PBD (367-603) = biological target: T1, PLK1 PBD (367-603) (Homo sapiens, UniProt P53350); test: Fluorescence polarization assay, PLK1 PBD; format: binding; conditions: Table 10; target not named at the place; read-out: in vitro binding IC50
T1 construct: PLK1 PBD (367-603) and PLK3 PBD (335-646) proteins were obtained from BPS Biosciences Inc; purchased BPS Biosciences Inc. (San Diego, CA)
T1 sequence (P53350 367-603): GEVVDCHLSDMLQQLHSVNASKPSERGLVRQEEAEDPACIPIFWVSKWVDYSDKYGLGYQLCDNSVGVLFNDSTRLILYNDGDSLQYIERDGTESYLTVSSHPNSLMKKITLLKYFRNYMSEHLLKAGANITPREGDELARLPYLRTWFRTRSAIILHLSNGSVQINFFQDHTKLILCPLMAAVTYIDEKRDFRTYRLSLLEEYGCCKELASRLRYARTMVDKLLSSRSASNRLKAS
Procedure: Materials were dissolved in DMSO (10 mM) and diluted from 10 nM to 600 μM (maximum of 6% DMSO tolerance in the assay). PLK1 PBD (367-603) and PLK3 PBD (335-646) proteins were obtained from BPS Biosciences Inc. (San Diego, CA); 17 ng PLK1 and 156 ng PLK3 were used per reaction. The fluorescein-tracer phospho-peptides (MAGPMQS[pT]PLNGAKK (SEQ ID NO: 1) for PLK1, and GPLATS[pT]PKNG (SEQ ID NO: 2) for PLK3) were used at a final concentration of 10 nM. Incubation was carried out at room temperature for 45 minutes. Fluorescence was measured using a DTX 880 plate reader and Multimode Analysis software (Beckman Coulter, Brea, CA). The polarization values in millipolarization (mP) units were measured at an excitation wavelength of 488 nm and an emission wavelength of 535 nm. Each data point was performed in triplicate for every experiment, and experiments were performed at least three times. An IC50 value for each compound was calculated from linear regression analysis of the plots.

[1] = test system: HeLa cervical cancer cells; test: MTT cell viability assay, HeLa; format: cell-based; conditions: p53 MT, PTEN WT
Description: HeLa cervical cancer cells were obtained from ATCC (Manassas, VA). Histone H2B GFP-labeled HeLa cells (HeLa-H2B-GFP) were kindly provided by Dr. Geoffrey Wahl (Gene Expression Laboratory, Salk Institute), and were confirmed as >95% GFP positive by FACS (data not shown) but were not otherwise authenticated. Cells were maintained in DMEM (Invitrogen™, Carlsebad, CA) supplemented with 10% FBS or Corning® Nu-serum™ (BD™ Biosciences, Franklin Lakes, NJ) and 1% penicillin/streptomycin (Invitrogen™) in a humidified incubator and 5% CO2 at 37° C.
Exponentially growing cells were plated in 96-well dishes. Dose response curves were used to treat cells for 72 hours with inhibitors. Following the three-day treatment, cell viability was measured using the MTT (3-(4,5-dimethylthiazol-2-yl)-2,5-diphenyltetrazolium bromide) colorimetric assay. Cells were incubated for 3 hours with MTT allowing viable cells to metabolize the tetrazolium dye to a purple colored solution. Absorbance measurements (595 nm) were quantified using a DTX 880 plate reader and IC50 values were generated for FLIPs.

apoptosis = test: Cell cycle analysis and caspase apoptosis assay; format: cell-based; conditions: versus negative control
Description: Disclosed small molecule inhibitors can also encourage apoptosis.

[2] = Tolerability in the PC3 xenograft study; format: in vivo, athymic nude mice
Procedure: The efficacy of promising abbapolin compounds were tested in multiple cancer cell lines. […] To do so, athymic nude mice were injected in their flanks with 2.7×10^6 PC3 prostate cancer cells. After the tumors established at 13 days, 5-8 mice per group were treated with 6359 and 6369 daily for 5 days (M-F) for a total of 15 days. […] This is in agreement with the PLK1 degradation in the xenograft tumor.

[3] = Pharmacokinetics after oral gavage; format: in vivo, swiss webster mice
Procedure: FIG. 3 graphically illustrates pharmacokinetics of SCCP ID No. 6359 in swiss webster mice at a dosage of 50 mg/kg.
These reasonable PK values of the lead abbapolin compounds tested in vivo are promising and indicate optimization will lead to further improvements.

UO-31 = test: Single dose cell viability assay, UO-31; format: cell-based; conditions: UO-31 (Renal), single dose 10 μM
Procedure: (§1) Lead abbapolin compounds were tested in multiple cancer cell lines, including non-small cell lung cancer (NSCLC) cells, melanoma cells, colon cancer cells, central nervous system (CNS) cancer cells, prostate cancer cells, renal cancer cells, and breast cancer cells. Each of these cancer cells lines were sensitive to the lead abbapolin compounds in a cell viability assay, including 6184 (Table 3), 6277 (Table 4), 6279 (Table 5), 6355 (Table 6), 6359 (Table 7), 6369 (Table 8), and 6421 (Table 9).

HL-60(TB) = test: Single dose cell viability assay, HL-60(TB); format: cell-based; conditions: HL-60(TB) (Leukemia), single dose 10 μM
Procedure: as §1

[4] = 6359 100 mg/kg oral, 6369 40 mg/kg IP, 15 days

Substance: 3-(4-octylbenzamido)phenyl phosphate [compound 6369]
- IC50 (PLK1 PBD (367-603)): 115 µM
- IC50 [1]: 17.5 ± 2.9 µM
- levels of apoptosis (apoptosis): high levels of apoptosis
- body weight [2, 4]: no loss of body weight
- tolerability / toxicity [2, 4]: well tolerated
- change in liver, kidney, and prostate weight ([2]; P>0.05): non-significant
- blood levels ([3]; 50 mg/kg by oral gavage): measurable blood levels
- oral absorption / PK ([3]; mouse, in vivo, po): low oral absorption
- Cells Remaining (%) (UO-31): 46.64%
- Cells Remaining (%) (HL-60(TB)): 54.82%
